Assay results taken from ChEMBL document CHEMBL2440022, “Development of a novel fluorine-18 labeled deuterated fluororasagiline ([(18)F]fluororasagiline-D2) radioligand for PET studies of monoamino oxidase B (MAO-B)” (Bioorg Med Chem, 2013).

Experiments:
[1] = target: T1, Amine oxidase [flavin-containing] B (Homo sapiens, UniProt P27338); experiment: Inhibition of recombinant human MAO-B expressed in insect cells using kynuramine as substrate assessed as formation of 4-hydroxyquinoline measured every 5 mins for 30 mins; format: cell-based
T1 sequence (P27338 whole entry): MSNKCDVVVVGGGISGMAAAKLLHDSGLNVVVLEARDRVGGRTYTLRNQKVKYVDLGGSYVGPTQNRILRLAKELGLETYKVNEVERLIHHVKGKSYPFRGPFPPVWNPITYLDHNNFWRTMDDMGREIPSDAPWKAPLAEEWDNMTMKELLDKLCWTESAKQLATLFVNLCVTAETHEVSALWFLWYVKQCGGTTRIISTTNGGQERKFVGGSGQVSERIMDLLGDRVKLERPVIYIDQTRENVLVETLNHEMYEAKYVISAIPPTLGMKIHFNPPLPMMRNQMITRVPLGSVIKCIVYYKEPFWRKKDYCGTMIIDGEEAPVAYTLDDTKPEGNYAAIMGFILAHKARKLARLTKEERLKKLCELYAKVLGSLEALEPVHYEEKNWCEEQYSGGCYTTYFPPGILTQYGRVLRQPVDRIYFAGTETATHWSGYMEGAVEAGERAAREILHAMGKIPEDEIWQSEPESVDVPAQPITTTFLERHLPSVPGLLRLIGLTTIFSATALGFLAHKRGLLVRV

[2] = target: T2, Amine oxidase [flavin-containing] A (Homo sapiens, UniProt P21397); experiment: Inhibition of recombinant human MAO-A expressed in insect cells using kynuramine as substrate assessed as formation of 4-hydroxyquinoline measured every 5 mins for 30 mins
T2 sequence (P21397 whole entry): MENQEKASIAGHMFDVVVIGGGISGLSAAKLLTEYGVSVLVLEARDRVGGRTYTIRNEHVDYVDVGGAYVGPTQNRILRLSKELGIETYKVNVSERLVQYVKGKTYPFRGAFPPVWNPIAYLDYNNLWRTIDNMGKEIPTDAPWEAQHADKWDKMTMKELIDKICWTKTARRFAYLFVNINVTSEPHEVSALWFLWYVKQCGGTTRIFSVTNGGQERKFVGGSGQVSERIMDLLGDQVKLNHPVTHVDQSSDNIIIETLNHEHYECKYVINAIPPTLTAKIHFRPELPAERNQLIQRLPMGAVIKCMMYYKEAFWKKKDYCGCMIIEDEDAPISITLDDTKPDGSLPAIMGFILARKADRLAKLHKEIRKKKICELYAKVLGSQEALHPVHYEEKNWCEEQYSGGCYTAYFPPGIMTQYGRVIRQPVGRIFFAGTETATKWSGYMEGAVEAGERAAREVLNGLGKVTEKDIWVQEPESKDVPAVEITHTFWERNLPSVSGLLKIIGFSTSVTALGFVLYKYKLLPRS

[3] = Drug uptake in cynomolgus monkey cerebellum at 168 to 174 MBq, iv after 60 mins by PET analysis in presence of L-deprenyl; format: ADME, organism-based, Macaca fascicularis; conditions: in vivo, 1 h
[4] = Chemical stability of the compound in PBS at pH 7.4 after 180 mins; format: physicochemical; conditions: read-out: Stability
[5] = Drug uptake in cynomolgus monkey cerebellum at 168 to 174 MBq, iv after 60 mins by PET analysis; format: ADME, organism-based, Macaca fascicularis; conditions: in vivo, 1 h
[6] = Drug uptake in cynomolgus monkey cortex at 168 to 174 MBq, iv after 60 mins by PET analysis in presence of L-deprenyl; format: ADME, organism-based, Macaca fascicularis; conditions: in vivo, 1 h
[7] = Drug uptake in cynomolgus monkey striatum at 168 to 174 MBq, iv after 60 mins by PET analysis; format: ADME, organism-based, Macaca fascicularis; conditions: in vivo, 1 h
[8] = tested on: Thalamus; experiment: Drug uptake in cynomolgus monkey thalamus at 168 to 174 MBq, iv after 60 mins by PET analysis in presence of L-deprenyl; format: ADME, organism-based, Macaca fascicularis; conditions: in vivo, 1 h
[9] = tested on: Brain; experiment: Drug uptake in cynomolgus monkey brain at 168 to 174 MBq, iv after 4 mins by PET analysis; format: ADME, organism-based, Macaca fascicularis; conditions: in vivo
[10] = Drug recovery in cynomolgus monkey plasma at 168 to 174 MBq, iv by RP-HPLC analysis in presence of acetonitrile; format: ADME, organism-based, Macaca fascicularis; conditions: read-out: Drug recovery
[11] = tested on: Cynomolgus monkey; experiment: Drug metabolism in cynomolgus monkey plasma assessed as radiometabolite M1 retention time at 168 to 174 MBq, iv RP-HPLC analysis; format: ADME, organism-based, Macaca fascicularis
[12] = Stability in cynomolgus monkey plasma assessed as unchanged parent compound at 168 to 174 MBq, iv after 120 mins by RP-HPLC analysis; format: ADME, organism-based, Macaca fascicularis; conditions: read-out: Stability
[13] = Stability in cynomolgus monkey plasma assessed as unchanged parent compound at 168 to 174 MBq, iv after 45 mins by RP-HPLC analysis; format: ADME, organism-based, Macaca fascicularis; conditions: read-out: Stability
[14] = Stability in cynomolgus monkey plasma assessed as unchanged parent compound at 168 to 174 MBq, iv after 15 mins by RP-HPLC analysis; format: ADME, organism-based, Macaca fascicularis; conditions: read-out: Stability
[15] = tested on: Thalamus; experiment: Drug uptake in cynomolgus monkey thalamus at 168 to 174 MBq, iv after 60 mins by PET analysis; format: ADME, organism-based, Macaca fascicularis; conditions: in vivo, 1 h
[16] = Drug uptake in cynomolgus monkey cortex at 168 to 174 MBq, iv after 60 mins by PET analysis; format: ADME, organism-based, Macaca fascicularis; conditions: in vivo, 1 h
[17] = tested on: Cynomolgus monkey; experiment: Drug metabolism in cynomolgus monkey plasma assessed as radiometabolite M2 retention time at 168 to 174 MBq, iv by RP-HPLC analysis; format: ADME, organism-based, Macaca fascicularis
[18] = Drug uptake in cynomolgus monkey striatum at 168 to 174 MBq, iv after 60 mins by PET analysis in presence of L-deprenyl; format: ADME, organism-based, Macaca fascicularis; conditions: in vivo, 1 h
[19] = organism: Homo sapiens; experiment: Selectivity ratio of IC50 for recombinant human MAO-B to IC50 for recombinant human MAO-A; conditions: tested as the 2H-labelled form

In the case of `[2H]C([2H])(C#C)N[C@@H]1c2ccccc2C[C@H]1F`, the IC50 [1] is reported as 173 nM and the IC50 [2] is reported as 9.9 µM.
In the case of `[2H]C([2H])(C#C)N[C@@H]1c2ccccc2C[C@H]1[18F]` [[18F]FLUORORASAGILINE-D2], the SUV [3] is reported as 0.54%, the remaining at 3 h [4] is reported as greater than 97% and the SUV [5] is reported as 0.99%. The SUV [6] was 0.66%, the SUV [7] was 1.38% and the SUV [8] was 0.78%. The SUV [9] was 270%, the recovery [10] was greater than 95% and the Retention_time [11] was 2.9 min. For the same compound, the remaining at 2 h [12] was 20%, the remaining at 0.75 h [13] was 50% and the remaining at 0.25 h [14] was 75%. The SUV [15] was 1.46%, the SUV [16] was 1.1% and the Retention_time [17] was 6.7 min. For the same compound, the SUV [18] was 0.77%.
With `C#CCN[C@@H]1c2ccccc2C[C@H]1F` the Ratio IC50 [19] was 19.
In the case of `C#CCN[C@H]1c2ccccc2C[C@@H]1F` [FLUORORASAGILINE], the IC50 [1] is reported as 27 nM.
Work on `C#CCN[C@H]1c2ccccc2C[C@@H]1[18F]` [[18F]FLUORORASAGILINE] yielded a remaining at 2 h [12] of 35% and a remaining at 0.75 h [13] of 55%.
